Data on one molecule can be found in US20250009765A1, “COMPOSITIONS AND METHODS FOR REDUCING SLEEP DI[…] TREATING SLEEP DISORDERS” (FloraScience Inc., priority 2023, published 2025).

Format in all cases: in vivo, human
Series [1] relates to sleep disturbance. The series can be described thus: PROMIS Sleep Disturbance 8A survey, randomized blinded placebo-controlled study. The protocol:
(§1) The primary aim of this study was to assess the effects of three different formulations of TruCBN softgels and a formulation of 4 mg melatonin on sleep quality, relative to placebo control. There were 5 arms within the study; (1) 4 mg melatonin, (2) 25 mg CBN, (3) 50 mg CBN, (4) 100 mg CBN, and (5) placebo (see Table 1 for further details on study arm formulations). All study arms provided the test article as a softgel. Participants were instructed to take 1 softgel 1-2 hours before bed. To ensure that results were not biased, participants were randomly assigned to product, were blinded to the contents, and were not told what they were taking until the conclusion of the study. The secondary aim of the study was to assess the tolerability of the three formulations of TruCBN softgels and 4 mg melatonin, relative to placebo.
(§2) Study participants were at least 21 years old, endorsed a desire for better sleep quality, and expressed interest in taking a cannabinoid product to improve their sleep. The study was entirely virtual; participants were recruited through online recruitment channels, study product was delivered directly to participants' homes, and all data were collected via online surveys delivered to their mobile device or computer. There were four phases of the study (see FIG. 1 for study timeline): (1) Recruitment and Randomization, (2) Baseline (1 week), (3) Study period (2-5 weeks), and (4) Conclusion.
PROMIS™ Sleep Disturbance 8A: An 8-question survey, with severity thresholds based on T-scores not raw scores. The severity scores are established as follows: • “None to slight”=Less than 55 • “Mild”=55.0-59.9 • “Moderate”=60.0-69.9 • “Severe”=70 and up
The range of raw scores were from 8 to 40, with higher scores translating to greater sleep disturbance (i.e., worse sleep quality). PROMIS™ Sleep Disturbance 8A threshold for minimally important difference: One-half the standard deviation of the baseline score (Purvis, Taylor E. et al., SPINE, 2018, 43(21):1512-1520).
(§3) After receiving study product, each participant was instructed to take 1 softgel each day orally 1-2 hours before bed and complete weekly health and product use surveys. This phase of the study lasted about 4 weeks.
(§4) For precision, adjustments were made for sex, age, race, ethnicity, and body mass index (BMI) in every model. […] Analysis was conducted using Stata 17 and R. An intent-to-treat analysis was run, meaning that all participants who were assigned product (aside from the aforementioned exclusions) were included in the analysis according to their product assignment, regardless of product adherence or study attrition. Visuals of the predicted marginal means of health scores, rather than the raw mean scores, were prepared. Predicted marginal means were calculated from the statistical models and better represent the true differences between arms adjusting for any potential imbalances across arms. A finding that was “significant” means that the likelihood of falsely rejecting the null hypothesis that there were no differences between groups was very small (less than 5%; i.e., the p-value was less than 0.05). In other words, when certain findings were said to be “significant” they are not considered the result of random variation.

The test system of series [2] is sleep disturbance. The experiment in a line: PROMIS Sleep Disturbance SF4A survey, randomized blinded placebo-controlled study. On the procedure:
as §1, §2
The PROMIS™ Sleep Disturbance SF4A threshold for minimally important difference: One-half the standard deviation of the baseline score (Norman, G. R. et al., Med. Care, 2003, 41:582-592).
as §3, §4

The subject of series [3] is sleep disturbance. The series can be described thus: Participant global impression of change (PGIC) in sleep disturbance. The protocol:
as §1
Participants received a final study survey asking about their overall experiences and impressions. Afterwards they also receive a Report containing their individualized data.
as §4

Series [4] in a line: Average time to effect reported by participants. The settings on record: 4 mg melatonin softgel, oral. On the procedure:
as §3
Participants reported experiencing an effect between 46 and 55 minutes after taking their study product.

A short description of series [5]: Tolerability: side effects reported by participants. The settings on record: 4 mg melatonin. On the procedure: as §1, §3
The side effects for all study arms were similar in frequency and mostly mild; none were considered serious or required use of emergency or non-emergency healthcare services. The most commonly reported side effect was grogginess or drowsiness (see FIG. 7). Additional side effects reported by some participants included: chest pain, constipation, urinary tract infection, tingling in lips, dry mouth, weight gain, dry or itchy eyes, low libido, rash, and brain fog.

The mark [6] stands for this setting: 4 mg melatonin − placebo, 95% CI in parentheses.
Setting [7] is: 4 mg melatonin, 30% or greater reduction from baseline.
[8] abbreviates: 4 mg melatonin, improvement = 30% or greater reduction from baseline, 95% CI in parentheses.

On to `COc1ccc2[nH]cc(CCNC(C)=O)c2c1` [melatonin, reference compound], for which the “Parameter Estimate for PROMIS Sleep Disturbances 8a, Treatment” value in series [1] (4 mg Melatonin, reference placebo, linear mixed-effects model) is listed as −0.56. Further, the “Relative Risk for meaningful clinical improvement on the PROMIS Sleep Disturbance 8A” value in series [1] (setting [6]) is on record as 1.43 (0.7, 2.16). For the same molecule, the “Observed % Achieving Meaningful Clinical Improvement on the PROMIS Sleep 8A” value in series [1] (setting [7]) was found to be 51.9%. Also, the “% experiencing MCID in PROMIS Sleep Disturbance 8A score” value in series [1] (4 mg melatonin, MCID = score reduction of one half the standard deviation of the baseline score) is 51.9%. For the same molecule, in series [1] (setting [8]), the “Estimated marginal percentage achieving meaningful clinical improvement on the PROMIS Sleep 8A” value is reported as 50.5% (37.54%, 67.94%). For the same molecule, the “Estimated marginal mean, PROMIS Sleep Disturbance 8A” value was 20.7 in series [1] (4 mg melatonin, week 1); 20.4 in series [1] (4 mg melatonin, week 2); 20.7 in series [1] (4 mg melatonin, week 3); 20.4 in series [1] (4 mg melatonin, week 4). In addition, in series [2] (setting [6]), the “Relative Risk for meaningful clinical improvement on the PROMIS Sleep SF4A” value is reported as 1.49 (0.74, 2.25). For the same molecule, in series [2] (setting [7]), the “Observed % Achieving Meaningful Clinical Improvement on the PROMIS Sleep SF4A” value was 53.25%. The “Estimated marginal percentage achieving meaningful clinical improvement on the PROMIS Sleep SF4A” value in series [2] (setting [8]) was 51.25% (38.25%, 68.7%). Besides, the “Estimated marginal mean, PROMIS Sleep Disturbance SF4A” value is 10.8 in series [2] (4 mg melatonin, week 1); 10.7 in series [2] (4 mg melatonin, week 2); 10.7 in series [2] (4 mg melatonin, week 3); 10.5 in series [2] (4 mg melatonin, week 4). Further, the “Parameter estimate for PGIC in sleep disturbance” value in series [3] (4 mg Melatonin, treatment reference placebo, log-odds scale) is 0.79. In series [3] (4 mg melatonin), the “Marginal mean (95% confidence interval), sleep disturbance PGIC” value is 3.88. In addition, the “Odds Ratio (95% Confidence interval), sleep disturbance PGIC” value in series [3] (4 mg melatonin − placebo, Dunnett correction) is 2.21 (1.15, 4.21). For the same molecule, the “Average time to effect” value in series [4] was 49.1 min. Also, in series [5], the “% of participants reporting any side effects” value came to 11.9%.
